The results in this text go back to PubChem BioAssay (NCI).

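Five concentrations, 48 hours, 96-well plates. GI50: concentration for 50% inhibition of growth. TGI: total growth inhibition.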

What all share (assay): growth of human tumour cells (NCI), 48 h
Assay [1] relates to CAKI-1 renal.
In assay [2] the test system is UO-31 renal.
Assay [3] has as its system SK-OV-3 ovarian.
For assay [4], the system named is SF-295 CNS.
For assay [5], the system named is K-562 leukemia.
Assay [6] deals with IGROV1 ovarian.
Assay [7] has as its system HT29 colon.
Assay [8] deals with LOX IMVI melanoma.
The test system of assay [9] is U251 CNS.
The subject of assay [10] is KM12 colon.

Take `O=C1Cc2ccccc2N1/N=C\c1ccc(O)cc1`: the TGI in [1], in assay [2], in assay [3], in [4], in assay [5] and in assay [6] was greater than 100 µM each time. The TGI in [7], in assay [8], in assay [9] and in assay [10] was greater than 100 µM in each case.
Regarding `CSc1nc2c(nc(N)n2C2OCC(O)C(O)C2O)c(=O)[nH]1` (centres undefined), the TGI in assay [1], in assay [2], in assay [3], in assay [4], in [5] and in assay [6] was greater than 100 µM in each case. Moreover, the TGI in [7], in assay [8], in assay [9] and in assay [10] was greater than 100 µM in each case.
For `CNC1=C(C)C(=O)C(C)=C(C(C)(C)CC(=O)n2cc(F)c(=O)[nH]c2=O)C1=O`, the TGI in [1], in assay [2], in [3], in assay [4], in assay [5] and in assay [6] was greater than 100 µM throughout. The TGI in [7], in assay [8], in assay [9] and in assay [10] was greater than 100 µM throughout.
As for `Cn1c(=O)c(C(c2ccccc2)c2c(O)c3ccccc3n(C)c2=O)c(O)c2ccccc21`, the TGI in assay [1], in assay [2], in [3], in assay [4], in assay [5] and in assay [6] was greater than 100 µM each time. Moreover, the TGI in assay [7], in assay [8], in assay [9] and in assay [10] was greater than 100 µM throughout.
With `Cc1ccc(C(=O)Nc2ccc(CN3CCN(C)CC3)c(C(F)(F)F)c2)cc1C#Cc1cncc2ncccc12`, the GI50 in assay [1] is 0.222 µM; in [2], 0.191 µM; in [3] it was 0.553 µM; in assay [4], 1.2 µM; in assay [6], 0.0879 µM; in [7] it was 0.142 µM. Besides, the GI50 in [8] is 0.0978 µM; in assay [9], 0.52 µM; in assay [10], 0.338 µM. Further, the TGI in [1] came to 2.52 µM; in [2], 0.903 µM; in assay [3], 6.63 µM; in assay [4], 16.2 µM; in assay [5] it was 1.67 µM; in assay [6] it was 0.755 µM. The TGI in assay [7] was found to be 1.41 µM; in [8], 0.554 µM; in assay [9], 1.84 µM; in assay [10], 4.49 µM.
As for `NNC(=O)CC(=O)Nc1ccccc1F`, the TGI in [1], in assay [2], in [3], in [4], in assay [5] and in [6] was greater than 100 µM throughout. The TGI in [7], in assay [8], in assay [9] and in [10] was greater than 100 µM throughout.
As for `Cc1c(N2C(=O)/C(=C\c3ccc(O)cc3)N=C2c2ccccc2)c(=O)n(-c2ccccc2)n1C`, the GI50 in [1], in [2], in assay [3], in assay [4], in assay [5] and in [6] was greater than 100 µM in each case. Besides, the GI50 in [7], in assay [8], in assay [9] and in assay [10] was greater than 100 µM each time. Also, the TGI in assay [1], in assay [2], in [3], in [4], in [5] and in assay [6] was greater than 100 µM in each case. The TGI in [7], in assay [8], in assay [9] and in assay [10] was greater than 100 µM throughout.
In the case of `C/C1=C\CC[C@@](C)(O)[C@H]2C[C@H](CC/C(C)=C/CC1)C1(CC1)C(=O)O2`, the GI50 was 20.7 µM in assay [1]; 18.2 µM in [2]; greater than 100 µM in [3]; 19.3 µM in assay [4]; 13.2 µM in [5]; 18.9 µM in [6]. Moreover, the GI50 was 36.6 µM in assay [7], 13.6 µM in assay [8], 17.5 µM in assay [9] and 37.2 µM in [10]. In addition, the TGI is 43.3 µM in [1]; 33.8 µM in assay [2]; greater than 100 µM in assay [3]; 46.7 µM in [4]; 29 µM in assay [5]; 39.7 µM in [6]. Moreover, the TGI is greater than 100 µM in [7], 28.6 µM in [8], 37.1 µM in assay [9] and greater than 100 µM in assay [10].
For the compound `Cc1cc(-c2ccccc2)c(C)n1Cc1ccc(Cl)cc1`, the GI50 in assay [1] is 3.66 µM; in assay [2] it was 5.45 µM; in assay [3], 5.92 µM; in [4] it was 2.74 µM; in assay [5], 0.84 µM; in [6] it was 5.21 µM. For the same compound, the GI50 in assay [7] is 3.28 µM; in [8], 6.95 µM; in assay [9], 4.65 µM; in assay [10] it was 4.26 µM. The TGI is greater than 100 µM in [1]; greater than 100 µM in assay [2]; greater than 100 µM in [3]; 9.33 µM in assay [4]; greater than 100 µM in assay [5]; greater than 100 µM in assay [6]. The TGI in assay [7] was 17.6 µM; in [8], greater than 100 µM; in assay [9], greater than 100 µM; in assay [10], greater than 100 µM.
Consider `Cn1c2ccccc2c2cc(-c3ccccc3)c3c(c21)C(=O)C=CC3=O`, for which the TGI is 39.3 µM in assay [1]; 42.9 µM in assay [2]; greater than 100 µM in [3]; 62.4 µM in [4]; greater than 70.6 µM in assay [5]; 64.9 µM in [6]. Further, the TGI is 42.7 µM in assay [7], 34.7 µM in [8], 39.4 µM in assay [9] and 42.2 µM in assay [10].
Take `c1ccc(-c2n(Cc3ccc4ccccc4n3)c3ccccc3[n+]2Cc2ccc3ccccc3n2)cc1`: the GI50 in assay [1] was 1.36 µM; in [2], 1.45 µM; in assay [3], 0.282 µM; in assay [4], 0.358 µM; in [5], 0.141 µM; in [6], 0.244 µM. In addition, the GI50 in assay [7] was 0.221 µM; in [8] it was 0.261 µM; in assay [9], 0.243 µM; in assay [10], 0.344 µM. Also, the TGI in assay [1] amounted to 3.37 µM; in assay [2] it was 2.89 µM; in assay [3], 1.18 µM; in assay [4] it was 1.39 µM; in assay [5], 1.34 µM; in assay [6], 1.28 µM. Moreover, the TGI in [7] was 1.23 µM; in assay [8], 1.06 µM; in assay [9] it was 1.19 µM; in assay [10] it was 1.3 µM.
Regarding `CN(C)CCCNC(=O)c1cc2c3ccccc3[nH]c2c2ncccc12`, the GI50 is 7.83 µM in [1]; 10.9 µM in assay [2]; 20 µM in assay [3]; 7.49 µM in assay [4]; 27.6 µM in [5]; 10.9 µM in assay [6]. Moreover, the GI50 is 10.3 µM in assay [7], 8.34 µM in assay [8], 16.7 µM in assay [9] and 19.8 µM in assay [10]. For the same compound, the TGI is 56.5 µM in [1]; greater than 100 µM in [2]; greater than 100 µM in assay [3]; 28 µM in assay [4]; greater than 100 µM in assay [5]; 70.9 µM in assay [6]. Besides, the TGI in assay [7] turned out to be 50.4 µM; in [8], 23.8 µM; in [9] it was 70 µM; in [10] it was 67.3 µM.
In the case of `CCC[CH2][Sn]1([CH2]CCC)[O]C(=O)C[S]1`, the GI50 was 0.759 µM in [1]; 2.48 µM in assay [2]; 4.63 µM in assay [3]; 3.61 µM in assay [4]; 0.405 µM in assay [5]; 1.86 µM in [6]. Also, the GI50 was 2.83 µM in [7], 1.46 µM in assay [8], 1.33 µM in [9] and 2.6 µM in assay [10]. The TGI is 3.47 µM in assay [1]; 7.29 µM in [2]; 14 µM in assay [3]; 13 µM in assay [4]; 3.59 µM in assay [5]; 4.16 µM in assay [6]. For the same compound, the TGI in assay [7] came out at 8.2 µM; in assay [8], 3.09 µM; in [9], 2.65 µM; in assay [10], 10.9 µM.
`COC1=NN2C(OC)(c3ccccc3)c3c(-c4ccccc4)sc(-c4ccccc4)c3C2(c2ccccc2)S1` (centres undefined): the TGI in assay [1], in assay [2], in [3], in assay [4], in assay [5] and in [6] was greater than 100 µM throughout. Further, the TGI in assay [7], in [8], in [9] and in [10] was greater than 100 µM throughout.
